The values below come from patent US8324422B2, “Enhydrazone esters for treating asthma, allergy and inflammation” (Kuwait University, priority 2008, dated 2012).

Data set [1] has as its system human peripheral blood eosinophils. The data set is described as follows: complement C5a-stimulated degranulation (EPO release) of human eosinophils. The settings on record: for IC50: C5a (30 nM) + cytochalasin B, 10 min pre-incubation, 30 min at 37° C., read-out: concentration achieving 50% inhibition of EPO release; for effect on EPO release at high concentration: at the concentrations of 300 nM and above. In kind it is cell-based. How it is done:
Example 1 involves the testing of the effect of complement C5a-induced degranulation of human blood eosinophils, and IgE-dependent degranulation of mast cells. Human peripheral blood eosinophils were purified to >98% by the immunomagnetic method. Aliquots containing 2.5×10^4 cells were added to each well of a 96-well microplate. The cells were separately pre-incubated for 10 minutes with CEE-1, CEE-2 or the drug solvent (DMSO) and then subsequently stimulated with recombinant human complement C5a (30 nM) in the presence of cytochalasin B (5 μg/mL). The reaction was allowed to proceed for 30 minutes at 37° C. The amount of the granular eosinophil peroxidases (EPO) released into the supernatant (as index of degranulation) was determined by the o-phenylenediamine method. The amount of EPO released was expressed as a percentage of the total cell content.
Cells were incubated with the each of CEE-1 and CEE-2 for 10 minutes before stimulation. Control uninhibited releases were in the range of 20-30% of total cell content. Results are shown as mean±SD, n=4.

Data set [2] shares this test system. Kind of data set: viability of eosinophils at concentrations that abolished EPO release. It counts as cell-based. An excerpt:
In untreated cells, C5a induced the release of 20-30% of the total cellular content of EPO.

Data set [3] has as its system RBL-2H3 mast cells. Kind of data set: antigen induced IgE-mediated degranulation (β-hexoseaminidase release) of mast cells (RBL-2H3). In kind it is cell-based, rat. The settings on record: anti-DNP IgE sensitized, DNP-BSA 100 ng/mL, 10 min pre-treatment; read-out: concentration achieving 50% inhibition of β-hexoseaminidase release. How it is done:
The anti-allergic effect was tested on IgE-dependent mast cell degranulation using the rat basophilic leukemia (RBL-2H3) cell line model. The cells were passively sensitized with 0.5 μg/mL anti-DNP monoclonal IgE antibody for 1 hour, and then washed twice to remove unbound antibody. They were then separately pre-treated with CEE-1, CEE-2 or their solvent (DMSO) for 10 minutes before being stimulated with the specific antigen DNP-BSA (100 ng/mL). After 30 minutes of incubation, the amount of granular β-hexoseaminidase released into the supernatant (index of degranulation) was determined photometrically.
FIG. 3 illustrates the inhibition of antigen induced IgE-mediated degranulation (β-hexoseaminidase release) of mast cells (RBL-2H3) by CEE-1 and CEE-2. Cells were incubated with CEE-1 and CEE-2 for 10 minutes before stimulation. Control uninhibited releases were in the range of 15-26% of total cell content. Results are shown as mean±SD, n=3.

For data set [4], the system named is mouse peritoneal macrophages. Kind of data set: LPS-stimulated release of TNF-α from mouse peritoneal macrophages. In kind it is cell-based. The settings on record: for IC50: LPS 1 μg/mL for 18 hours, 30 min pre-treatment, ELISA, read-out: concentration that achieved 50% inhibition of TNF-α release. How it is done: The antiinflammatory effect of CEE-1 and CEE-2 was tested on LPS-stimulated release of tumor necrotic factor-α (TNF-α) from mouse peritoneal macrophages. Thioglycollate-induced peritoneal macrophages were obtained by peritoneal lavage of Balb c mice. Macrophages purified by adherence to plastic plate were cultured in a supplemented RPMI medium and pre-treated with CEE-1, CEE-2 or their solvent (DMSO) for 30 minutes before being stimulated with LPS (1 μg/mL) for 18 hours. The amount of TNF-α released into the supernatant was determined by ELISA using commercially available kits.
FIG. 4 illustrates the inhibitory effect of CEE-1 and CEE-2 on the release of TNF-α from LPS-stimulated mouse peritoneal macrophages. Cells were pre-treated with the drugs for 30 minutes before stimulation with LPS (1 μg/mL). The net uninhibited releases were in the range of 130-185 pg/ml. Values are shown as mean±SD, n=3.
(In general: ELISA stands for enzyme-linked immunosorbent assay.)

Data set [5] has as its system mouse peritoneal macrophages. The data set is described as follows: viability of macrophages after overnight incubation. It counts as cell-based.
The subject of data set [6] is RBL-2H3 mast cells.

Turning to `COC(=O)C1C(=O)C=C(NNc2ccccc2)CC1c1ccccc1` (stereo not shown) [CEE-2, methyl 4-phenylhydrazinocyclohex-3-en-2-oxo-6-phenyl-1-oate], the figures for the IC50 (in data set [1]; in the data set on RBL-2H3 mast cells [3]; in data set [4]) were 94 nM, 1200 nM and 82 nM, respectively. Moreover, in data set [1], the “effect on EPO release at high concentration” value was “completely abolished EPO release”. Also, the “viability of the cells” value is on record as “did not significantly affect the viability of the cells” in data set [2] and “no effect on their viability” in data set [5]. Also, the “effect on TNF-α release at 10 μM” value in data set [4] was “completely abolished the release”. Besides, in the data set on RBL-2H3 mast cells [6], the “cellular toxicity (trypan blue exclusion test)” value is on record as “no cellular toxicity”.

For `CCOC(=O)C1C(=O)C=C(NNc2ccccc2)CC1c1ccccc1` (stereo not shown) [CEE-1, ethyl 4-phenylhydrazinocyclohex-3-en-2-oxo-6-phenyl-1-oate], the IC50 was 45 nM in data set [1], 800 nM in the data set on RBL-2H3 mast cells [3] and 80 nM in data set [4]. In addition, in data set [1], the “effect on EPO release at high concentration” value is reported as “completely abolished EPO release”. Besides, the “viability of the cells” value is on record as “did not significantly affect the viability of the cells” in data set [2] and “no effect on their viability” in data set [5]. Moreover, in data set [4], the “effect on TNF-α release at 10 μM” value was “completely abolished the release”. The “cellular toxicity (trypan blue exclusion test)” value with RBL-2H3 mast cells [6] is recorded as “no cellular toxicity”.
